The results in this text go back to PMC6589914 (Chembiochem, 2019).

One assay addresses T1, BT2970 (Bacteroides thetaiotaomicron, UniProt Q8A3I4).
T1 sequence (Q8A3I4 30-484): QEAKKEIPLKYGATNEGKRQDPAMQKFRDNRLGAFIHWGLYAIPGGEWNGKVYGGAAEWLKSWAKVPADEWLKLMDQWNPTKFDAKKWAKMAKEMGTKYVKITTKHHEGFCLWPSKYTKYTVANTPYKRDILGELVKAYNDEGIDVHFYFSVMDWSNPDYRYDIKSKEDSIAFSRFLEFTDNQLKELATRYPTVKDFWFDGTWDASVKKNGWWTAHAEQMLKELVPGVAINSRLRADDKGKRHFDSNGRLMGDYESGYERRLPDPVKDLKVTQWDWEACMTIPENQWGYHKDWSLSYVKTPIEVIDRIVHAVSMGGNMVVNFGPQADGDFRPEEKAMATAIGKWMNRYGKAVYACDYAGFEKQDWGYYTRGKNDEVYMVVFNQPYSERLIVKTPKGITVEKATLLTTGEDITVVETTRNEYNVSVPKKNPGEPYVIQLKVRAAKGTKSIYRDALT
In words: enzyme inhibition. The assay is classed as biochemical.
The Ki is the equilibrium dissociation constant of an inhibitor or competing ligand from its target. A lower Ki goes with a stronger hold on the target. `C[C@@H]1O/C(=N\OC(=O)Nc2ccccc2)[C@@H](O)[C@H](O)[C@@H]1O` [compound 39, 39] yielded a Ki of 121 ± 24 µM.

The next assay concerns the target T2, bFUCA1 (Bos taurus, UniProt Q2KIM0).
T2 sequence (Q2KIM0 23-468): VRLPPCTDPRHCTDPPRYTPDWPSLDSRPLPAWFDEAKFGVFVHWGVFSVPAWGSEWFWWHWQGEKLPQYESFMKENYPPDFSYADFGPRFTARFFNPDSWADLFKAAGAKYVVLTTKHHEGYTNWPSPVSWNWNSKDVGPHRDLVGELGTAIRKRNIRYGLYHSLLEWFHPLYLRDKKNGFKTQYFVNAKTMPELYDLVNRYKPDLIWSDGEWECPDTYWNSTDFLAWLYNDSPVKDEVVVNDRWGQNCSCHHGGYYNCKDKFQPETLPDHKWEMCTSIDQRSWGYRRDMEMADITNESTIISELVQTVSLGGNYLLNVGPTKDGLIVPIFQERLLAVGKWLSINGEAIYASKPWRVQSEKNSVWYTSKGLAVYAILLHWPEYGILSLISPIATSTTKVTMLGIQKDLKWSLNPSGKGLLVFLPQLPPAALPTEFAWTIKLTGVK
In words: enzyme inhibition assay with 4-nitrophenyl α-L-fucopyranoside. The assay is classed as biochemical.
With `C[C@@H]1OC(=NO)[C@@H](O)[C@H](O)[C@@H]1O` [compound 12, 1,5-hydroximolactone 12], the Ki was 323 ± 12 µM. `CCCNC(=O)ON=C1O[C@@H](C)[C@@H](O)[C@@H](O)[C@@H]1O` [compound 29, 29] had a Ki of 190 ± 11 µM.

Regarding `C=CCNC(=O)ON=C1O[C@@H](C)[C@@H](O)[C@@H](O)[C@@H]1O` [compound 30, 30], the affinity, expressed as Ki, was 175 ± 6 µM. Same read-out and setting: next, `CCCCNC(=O)ON=C1O[C@@H](C)[C@@H](O)[C@@H](O)[C@@H]1O` [compound 31, 31]: 172 ± 7 µM. Still for that read-out and setting: next, `CCCCCCNC(=O)ON=C1O[C@@H](C)[C@@H](O)[C@@H](O)[C@@H]1O` [compound 32, 32]: 143 ± 8 µM. Still for that read-out and setting: as for `CC(C)NC(=O)ON=C1O[C@@H](C)[C@@H](O)[C@@H](O)[C@@H]1O` [compound 33, 33], the figure is 320 ± 12 µM; as for `C[C@@H]1OC(=NOC(=O)NC(C)(C)C)[C@@H](O)[C@H](O)[C@@H]1O` [compound 34, 34], 440 ± 9 µM.

For the compound `C[C@@H]1OC(=NOC(=O)NC2CC2)[C@@H](O)[C@H](O)[C@@H]1O` [compound 35, 35], the Ki stood at 184 ± 6 µM. This Ki is about 2.4-fold lower than that of the compound before. Same read-out and setting: as for `C[C@@H]1OC(=NOC(=O)NC2CCC2)[C@@H](O)[C@H](O)[C@@H]1O` [compound 36, 36], the figure is 220 ± 12 µM; as for `C[C@@H]1OC(=NOC(=O)NC2CCCC2)[C@@H](O)[C@H](O)[C@@H]1O` [compound 37, 37], 325 ± 8 µM; as for `C[C@@H]1O/C(=N\OC(=O)Nc2ccccc2)[C@@H](O)[C@H](O)[C@@H]1O` [compound 39, 39], 11 ± 1 µM.

For the compound `C[C@@H]1OC(=NOC(=O)Nc2ccc(Br)cc2)[C@@H](O)[C@H](O)[C@@H]1O` [compound 40, 40], the Ki stood at 85 ± 4 µM.

`COc1ccc(NC(=O)ON=C2O[C@@H](C)[C@@H](O)[C@@H](O)[C@@H]2O)cc1` [compound 41, 41] registered a Ki of 9.5 ± 0.9 µM. The same measure, in the same setting: as for `CCCCc1ccc(NC(=O)ON=C2O[C@@H](C)[C@@H](O)[C@@H](O)[C@@H]2O)cc1` [compound 42, 42], the figure is 7.5 ± 0.4 µM; as for `CCCCCCCCCCc1ccc(NC(=O)ON=C2O[C@@H](C)[C@@H](O)[C@@H](O)[C@@H]2O)cc1` [compound 43, 43], 4.8 ± 0.5 µM.
